# In patent US20260297508A1, “MODULATORS OF PROTEIN SECRETION” (SANOFI, priority 2023, published 2026):
# Experiments:
# [1] = test system: biotin-induced antibody release, U2OS clone #7 cells; test: High-throughput RUSH screen: biotin-induced cytoplasmic GFP signal decay (antibody release), U2OS clone #7; format: cell-based, human; conditions: for secretion activator at both low and high concentration (consistently decreased fluorescent signal, among 20 best activators): Prestwick library; for decrease of intracytoplasmic GFP fluorescence signal (biotin-stimulated RUSH system): screening campaigns, summary
# Method: FIGS. 4A-4C show the high-throughput screening of chemical compound libraries for the identification of modulators of protein secretion. […] U2OS clone #7 is plated in 384-well plates and incubated for 24 h before treatment with each compound of the Prestwick, ICCB Known Bioactives, or Autophagy Compound Library at 2 concentrations, low and high (with a 10-fold difference). […] The results of the Prestwick library screening at the low drug concentration are plotted. Brefeldin A was used as a positive control of the inhibition of secretion. The compounds causing a cytoplasmic GFP intensity below that observed for biotin-only treated cells are potential enhancers of protein secretion.
# U2OS cells were transfected with the streptavidin-KDEL plasmid using Lipofectamine 2000 (Thermo Fisher Scientific) and selected in medium supplemented with G418 (400 μg/mL, Gibco-Invitrogen) for 2 weeks. Limiting dilution in 96-well plates was used for single cell isolation from the selected pool. Clones were amplified and selected based on streptavidin immunofluorescence. Clone #BD6 showing the highest streptavidin expression was further expanded in medium supplemented with G418 (200 μg/mL) and transfected with the anti-PD-L1 IgG RUSH plasmid using Lipofectamine 2000 and selected in medium supplemented with G418 (200 μg/mL) and hygromycin (100 μg/mL, Santa Cruz Biotechnology) for 2 weeks. Limiting dilution in 96-well plates was used for single cell isolation from clone #BD6-derived selected pool. Clones were amplified and selected based on GFP fluorescence and clone #7 was selected for further characterization and screening campaigns.
# U2OS clone #7 cells were seeded in black 384-well imaging plates (Greiner bio one), 2,000 cells/well, and incubated for 24 h at 37° C. in a humidified incubator with 5% CO2. Cells were treated on the next day with the compounds from either the Prestwick library at […], the ICCB Known Bioactives library at 1/100^e or 1/1000^e, or the autophagy compound library at 10 μM or 1 μM for 4 h. […] Cells were then fixed as described above and processed for subsequent automated image acquisition using a robot-assisted IXM XL BioImager (Molecular Devices, Sunnyvale, CA, USA) equipped with a Sola light source (Lumencor, Beaverton, OR, USA), adapted excitation and emission filters (Semrock) a 16-bit monochrome sCMOS PCO.edge 5.5 camera (PCO, Kelheim, Germany). A 20× PlanAPO objective (Nikon, Tokyo, Japan) was used to acquire a minimum of 4 view fields in each well. The acquired images were processed using the open-access R software (https://www.r-project.org) with the help of freely available packages EBImage (available on the Bioconductor repository https://www.bioconductor.org), and RBioFormats (https://github.com/aoles/RBioFormats), and the custom packages MetaxpR (https://github.com/asauvat/MetaxpR) and MorphR (https://github.com/kroemerlab/MorphR). Nuclei were first detected using Hoechst 33342 signal and used as a marker to detect cytoplasmic areas based on GFP signal, allowing for the evaluation of cytoplasmic GFP intensity. Data were thereafter extracted and statistically evaluated using R (https://www.r-project.org). Data were normalized using negative and positive controls, reduced and transformed into a Z-score. The experiments were repeated manually at low scale with selected drugs to confirm their effects on secretion, in this second set of assays, U2OS clone #7 cells incubated with secretion inhibitors were fixed and stained with Hoechst as described above for imaging and viability determination based on cell counts.
# We next sought to use clone #7 in screening campaigns for the identification of drugs capable of enhancing or inhibiting antibody secretion. […] Cell counting was facilitated by nuclear counterstaining with Hoechst 33324 in order to assess viability and distinguish drug effects on the secretion kinetics from direct cytotoxicity and select relevant drugs for further characterization. […]
# [2] = test system: biotin-induced antibody release, U2OS clone #7 cells; test: Low-throughput validation by imaging of the biotin-induced antibody release (cytoplasmic GFP), clone #7; format: cell-based, human; conditions: FIG. 5C
# Method: FIGS. 5A-5C show selection of potential enhancers of protein secretion. FIGS. 5A and 5B) show dot plot representations of drugs efficiency based on their Z-scores measured at low and high drug concentration (FIG. 5A, Prestwick library; FIG. 5B, ICCB Known Bioactives and TargetMol Autophagy libraries). Compounds selected for further characterization are listed. (FIG. 5C) Clone #7 was treated with the indicated compounds, fixed and analyzed as described in FIG. 4A legend.
# FIG. 6A-6C show validation of enhancers of protein secretion.
# U2OS clone #7 cells were seeded in black 384-well imaging plates (Greiner bio one), 2,000 cells/well, and incubated for 24 h at 37° C. in a humidified incubator with 5% CO2. Cells were treated on the next day with the compounds from either the Prestwick library at […], the ICCB Known Bioactives library at 1/100^e or 1/1000^e, or the autophagy compound library at 10 μM or 1 μM for 4 h. […] Cells were then fixed as described above and processed for subsequent automated image acquisition using a robot-assisted IXM XL BioImager (Molecular Devices, Sunnyvale, CA, USA) equipped with a Sola light source (Lumencor, Beaverton, OR, USA), adapted excitation and emission filters (Semrock) a 16-bit monochrome sCMOS PCO.edge 5.5 camera (PCO, Kelheim, Germany). A 20× PlanAPO objective (Nikon, Tokyo, Japan) was used to acquire a minimum of 4 view fields in each well. […] Nuclei were first detected using Hoechst 33342 signal and used as a marker to detect cytoplasmic areas based on GFP signal, allowing for the evaluation of cytoplasmic GFP intensity. Data were thereafter extracted and statistically evaluated using R (https://www.r-project.org). […]
# Medium- and high-throughput screenings often yield false positive and negative hits, calling for independent validation in low-throughput experiments with orthogonal technologies. In a first round of experiments, we evaluated the effects of shortlisted compounds with potential antibody secretion enhancer activity. […]
# [3] = test system: RUSH antibody secretion, U2OS clone #7 cells; test: ELISA on immobilized PD-L1: RUSH antibody titer in supernatant of treated clone #7 cells; format: cell-based, human; conditions: PD-L1 binding ELISA
# Method: FIGS. 7A and 7B show validation of inhibitors of protein secretion. […] Clone #7 cells were treated with the indicated compounds and supernatants were assayed for PD-L1 binding. Brefeldin A was used as a protein secretion inhibitor positive control. […] Hoechst 33324 fluorescence was measured, which enabled to number adherent living cells in each well.
# U2OS clone #7 cells were seeded in 6-well plates and kept for 24 h at 37° C. in a humidified incubator with 5% CO2. The next day, the supernatants were removed, cells were rinsed with 37° C. pre-heated PBS and new medium containing the chemical treatment was added for 4 h. […] Then supernatants were collected and used for the ELISA assay as follows. MaxiSorp 96-well plates (Thermo Fisher Scientific) were coated with 0.5 μg/mL hFc-human-PD-L1 (R&D Systems, Minneapolis, MN) in PBS for 5.5 h at RT. Coating solution was then removed and 2% BSA/PBS blocking solution was added overnight at 4° C. The next day, wells were washed 3 times with 0.5% BSA/0.05% Tween-20/PBS solution. Supernatants were added after a ⅓ dilution in 0.5% BSA/0.05% Tween-20/PBS, for 2.3 h at RT. Wells were washed 3 times with 0.5% BSA/0.05% Tween-20/PBS solution. Anti-human kappa light chain HRP-coupled antibody was added diluted in 0.5% BSA/0.05% Tween-20/PBS at 1/4000^e for 2.3 h at RT. Wells were washed 3 times with 0.5% BSA/0.05% Tween-20/PBS solution before incubation with substrate reagents pack (R&D Systems) for 15 min in the dark. Fifty μL of STOP solution (R&D Systems) were then added to each well and the absorbance in each well was subsequently measured at 450 nm, and 635 nm for background subtraction, using a VICTOR™ X4 (PerkinElmer, Waltham, MA).
# Medium- and high-throughput screenings often yield false positive and negative hits, calling for independent validation in low-throughput experiments with orthogonal technologies. In a first round of experiments, we evaluated the effects of shortlisted compounds with potential antibody secretion enhancer activity. Compounds identified in the screening campaigns were tested again on clone #7 at a low concentration (FIG. 6A) or a ten-fold higher concentration (FIG. 6B) for their ability to increase antibody secretion. […] We further characterized these hits in an PD-L1 binding ELISA.
# SCAP = conditions: cited from earlier work
# [4] = ICCB Known Bioactives and TargetMol Autophagy libraries, 4 h compound, then 40 μM biotin 1 h
# [5] = 4 h compound, then 40 μM biotin 1 h
Molecule,"secretion activator at both low and high concentration (consistently decreased fluorescent signal, among 20 best activators) [1, 5]",decrease of intracytoplasmic GFP fluorescence signal (biotin-stimulated RUSH system) [1],other results
CC[C@H]1CN2CCc3cc(OC)c(OC)cc3[C@@H]2C[C@@H]1C[C@H]1NCCc2cc(OC)c(OC)cc21 [emetine],–,–,"activity as secretion activator at both low and high concentrations [1, 4]: active at both low and high concentrations"
O=C(O)CCNC(=O)c1ccc(/N=N/c2ccc(O)c(C(=O)O)c2)cc1 [balsalazide sodium],fulfilled these criteria,–,–
verteporfin,fulfilled these criteria,–,phototoxicity leading to GFP bleaching ([1]; data not shown): phototoxicity that leads to GFP bleaching
C[C@H]1CCC/C=C/[C@@H]2C[C@H](O)C[C@H]2[C@H](O)/C=C/C(=O)O1 [brefeldin A],–,–,"inhibition of the biotin-induced decrease of the GFP signal ([1]; 4 h compound, then 40 μM biotin 1 h, screening): inhibited the biotin-induced decrease of the GFP signal"
"O=C1CC(c2ccccc2)Oc2cc(O)cc(O)c21 (stereo not drawn) [pinocembrin, 5,7-Dihydroxy-2-phenyl-2,3-dihydro-4H-chromen-4-one]",–,consistently decreased intracytoplasmic GFP fluorescence,"activity as secretion activator at both low and high concentrations [1, 4]: active at both low and high concentrations"
"C[C@@H]1C[C@@H]([C@H](O)CC2CC(=O)NC(=O)C2)C(=O)[C@@H](C)C1 [cycloheximide, 4-[(2R)-2-[(1S,3S,5S)-3,5-dimethyl-2-oxocyclohexyl]-2-hydroxyethyl]piperidine-2,6-dione]",fulfilled these criteria,consistently decreased intracytoplasmic GFP fluorescence,–
"O[C@H]1[C@H]2c3cc4c(cc3CN3CCC(=C[C@@H]1O)[C@H]23)OCO4 [lycorine, 3,12-Didehydro-2′H-[1,3]dioxolo[4′,5′:9,10]galanthan-1α,2β-diol]",–,consistently decreased intracytoplasmic GFP fluorescence,"efficiency as secretion activator, high concentration ([1]; ICCB Known Bioactives and TargetMol Autophagy libraries, high concentration): not among the 20 most active compounds at the high concentration; efficiency as secretion activator, low concentration ([1]; ICCB Known Bioactives and TargetMol Autophagy libraries, low concentration): more efficient than any other compound at low concentration; effect on secretion by cell imaging [2]: secretion activator effect; RUSH antibody titers in treated cell culture supernatant ([3]; summary): shown to increase RUSH antibody titers; effect on antibody secretion compared with sodium butyrate ([3]; 1 and 50 μM): milder than that of sodium butyrate; antibody secretion-stimulatory activity ([3]; lycorine tested at both 1 and 50 μM, 4 h compound, biotin 1 h): considered to be active; SCAP inhibition (SCAP; orally active): potent and orally active SCAP inhibitor; SCAP protein level (SCAP; without changing its transcription): downregulates"
"C[C@]12CC[C@H](O)C[C@H]1CC[C@@H]1[C@@H]2C[C@@H](O)[C@]2(C)[C@@H](C3=CC(=O)OC3)CC[C@]12O [digoxigenin, 3-[(3S,5R,8R,9S,10S,12R,13S,14S,17R)-3,12,14-trihydroxy-10,13-dimethyl-1,2,3,4,5,6,7,8,9,11,12,15,16,17-tetradecahydrocyclopenta[a]phenanthren-17-yl]-2H-furan-5-one]",fulfilled these criteria,consistently decreased intracytoplasmic GFP fluorescence,–
"C1N2CN3CN1CN(C2)C3 [methenamine, 1,3,5,7-tetrazatricyclo[3.3.1.13,7]decane]",fulfilled these criteria,consistently decreased intracytoplasmic GFP fluorescence,–
"CCC1(CC)C(=O)C=CNC1=O [pyrithyldione, 3,3-diethyl-1H-pyridine-2,4-dione]",fulfilled these criteria,consistently decreased intracytoplasmic GFP fluorescence,–
